Earlier results, collected in patent publication US20040198651A1, “Secreted proteins” (priority 2001, published 2004).

Assays:
[1] = relative to progesterone
[2] = intranasal; relative to hydrocortisone

| Molecule | pharmacological activity greater than progesterone [1] | anti-inflammatory and vasoconstrictive effects greater than those produced by hydrocortisone [2] |
| --- | --- | --- |
| 6α-methyl-17-hydroxyprogesterone [medroxyprogesterone] | about 15 times | – |
| C[C@H]1C[C@H]2[C@@H]3CCC4=CC(=O)C=C[C@]4(C)[C@@]3(Cl)[C@@H](O)C[C@]2(C)[C@@]1(O)C(=O)CO [beclomethasone] | – | 5000 times |
